The record followed here is PubChem BioAssay (NCI).

The structures appear in SMILES notation. Values joined by “and” are separate entries in the source; they are usually repeats but may differ in a detail not shown here. Equal entries are not always repeated.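 All cell lines were grown in 96-well plates and treated with compound for 48 hours. GI50 = concentration required for 50% inhibition of growth. TGI: concentration producing complete growth inhibition.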

The test system of the first test is HCC-2998 colon. As to the kind of experiment: inhibition of tumour cell growth, NCI panel, 48 h.
In the case of `CCCCCCCCCCCCCCCCCCNC(=O)C(N)Cc1ccc(OCc2ccccc2)cn1` (stereo not drawn), the TGI turned out to be 24.2 µM.

For `Cc1ccc2c(c1)[nH]c(=S)n2/C=C1\C(=O)Oc2ccccc2C1=O`, the TGI was over 100 µM.

In turn, `CC(C)Cn1cnc2c(NCC(C)O)nc3ccccc3c21` (stereo not drawn) displayed a TGI of over 100 µM.

`OC1(c2cccs2)c2cccc(Cl)c2C(O)(c2cccs2)c2c(Cl)cccc21` (stereo not drawn) gave a TGI of over 100 µM.

Molecule `C=CCOc1cccc(C2(O)c3ccccc3C3=NCCCN32)c1` (stereo not drawn) returned a TGI of 29.6 µM.

Molecule `O=C1CCCCC/C1=C\c1cccc(Cl)c1` gave a TGI of over 100 µM.

`CCc1c2c([nH]c(=S)c1C#N)CCC2`: the TGI was over 100 µM.

`C=CCN1C(=O)/C(=C/c2ccc(OC)cc2)N=C1SC/C=C/C` had a TGI of over 100 µM.

For `Cc1nc2ccccc2n1COC(Cn1ccnc1)c1ccc(Cl)cc1Cl` (stereo not drawn), the TGI is over 100 µM.

On to `Cn1c2ccccc2c2c(-c3ccccc3)cc3c(c21)C(=O)C=CC3=O`, for which the TGI was over 8.05 µM.

Consider `Nc1ncnn2c(C3OC(CO)C(O)C3O)ccc12` (stereo not drawn), for which the TGI was found to be 2.71 µM.

`COC(=O)[C@@H]1CN(C(C)=O)C(=O)N1`: the TGI is over 100 µM.

`COc1ccc(-c2c(C#N)c(N)n(C3OCC(OC(C)=O)C(OC(C)=O)C3OC(C)=O)c(=S)c2C#N)cc1` (stereo not drawn): the TGI is 60.9 µM and > 100 µM.

A further test deals with MALME-3M melanoma. Briefly: inhibition of tumour cell growth, NCI panel, 48 h.
Take `CC(C)=CCC/C(C)=C/CC/C(C)=C/CC/C(C)=C/C=C/C=C(\C)CC/C=C(\C)CC/C=C(\C)CCC=C(C)C`: the TGI was over 100 µM.

Take `CCOC(=O)P(=O)(O)c1ccc(N(C)Cc2ccccc2)cc1`: the TGI is over 100 µM.

`C=C(C)C1=CCC[C@]2(C1)N=C(OC)[C@@H](C(C)C)N=C2OC` showed a TGI of over 100 µM.

Regarding `Cc1cc2ccccc2n2c1nc1ccccc12`, the TGI was over 100 µM.

`[N-]=[N+]=Nc1ccccc1C(=O)N1C(=O)c2ccccc2C(=O)N(C(=O)c2ccccc2N=[N+]=[N-])c2ccccc21` gave a TGI of over 100 µM.

`CCCCCCCCCCCCCCCCCCNC(=O)C(N)Cc1ccc(OCc2ccccc2)cn1` (stereo not drawn) gave a TGI of 42.9 µM.

In the case of `Cc1ccc2c(c1)[nH]c(=S)n2/C=C1\C(=O)Oc2ccccc2C1=O`, the TGI is over 100 µM.

Molecule `CC(C)Cn1cnc2c(NCC(C)O)nc3ccccc3c21` (stereo not drawn) came in with a TGI of over 100 µM.

Take `OC1(c2cccs2)c2cccc(Cl)c2C(O)(c2cccs2)c2c(Cl)cccc21` (stereo not drawn): the TGI was over 100 µM.

`C=CCOc1cccc(C2(O)c3ccccc3C3=NCCCN32)c1` (stereo not drawn) yielded a TGI of 35.1 µM.

As to `O=C1CCCCC/C1=C\c1cccc(Cl)c1`, the TGI is over 100 µM.

`CCc1c2c([nH]c(=S)c1C#N)CCC2` came in with a TGI of over 100 µM.

On to `C=CCN1C(=O)/C(=C/c2ccc(OC)cc2)N=C1SC/C=C/C`, for which the TGI is over 100 µM.

With `Cc1nc2ccccc2n1COC(Cn1ccnc1)c1ccc(Cl)cc1Cl` (stereo not drawn), the TGI was over 100 µM.

`Cn1c2ccccc2c2c(-c3ccccc3)cc3c(c21)C(=O)C=CC3=O` registered a TGI of 4.17 µM.

Regarding `Nc1ncnn2c(C3OC(CO)C(O)C3O)ccc12` (stereo not drawn), the TGI amounted to 0.285 µM.

The molecule `COC(=O)[C@@H]1CN(C(C)=O)C(=O)N1` yielded a TGI of over 100 µM.

`COc1ccc(-c2c(C#N)c(N)n(C3OCC(OC(C)=O)C(OC(C)=O)C3OC(C)=O)c(=S)c2C#N)cc1` (stereo not drawn) came in with a TGI of over 100 µM.

The subject of the next test is SF-268 CNS. As to the kind of experiment: inhibition of tumour cell growth, NCI panel, 48 h.
In the case of `CC(C)=CCC/C(C)=C/CC/C(C)=C/CC/C(C)=C/C=C/C=C(\C)CC/C=C(\C)CC/C=C(\C)CCC=C(C)C`, the TGI was over 81.4 µM.

As to `CCOC(=O)P(=O)(O)c1ccc(N(C)Cc2ccccc2)cc1`, the TGI is over 100 µM.

Molecule `C=C(C)C1=CCC[C@]2(C1)N=C(OC)[C@@H](C(C)C)N=C2OC` came in with a TGI of over 100 µM.

For `Cc1cc2ccccc2n2c1nc1ccccc12`, the TGI was over 100 µM.

Turning to `[N-]=[N+]=Nc1ccccc1C(=O)N1C(=O)c2ccccc2C(=O)N(C(=O)c2ccccc2N=[N+]=[N-])c2ccccc21`, the TGI was over 100 µM.

The molecule `CCCCCCCCCCCCCCCCCCNC(=O)C(N)Cc1ccc(OCc2ccccc2)cn1` (stereo not drawn) displayed a TGI of 43.4 µM.

With `Cc1ccc2c(c1)[nH]c(=S)n2/C=C1\C(=O)Oc2ccccc2C1=O`, the TGI was over 100 µM.

`CC(C)Cn1cnc2c(NCC(C)O)nc3ccccc3c21` (stereo not drawn) showed a TGI of over 100 µM.

`OC1(c2cccs2)c2cccc(Cl)c2C(O)(c2cccs2)c2c(Cl)cccc21` (stereo not drawn) showed a TGI of 75 µM.

As to `C=CCOc1cccc(C2(O)c3ccccc3C3=NCCCN32)c1` (stereo not drawn), the TGI is over 100 µM.

The molecule `O=C1CCCCC/C1=C\c1cccc(Cl)c1` yielded a TGI of 68.2 µM.

In turn, `CCc1c2c([nH]c(=S)c1C#N)CCC2` showed a TGI of over 100 µM.

Regarding `C=CCN1C(=O)/C(=C/c2ccc(OC)cc2)N=C1SC/C=C/C`, the TGI was over 100 µM.

With `Cc1nc2ccccc2n1COC(Cn1ccnc1)c1ccc(Cl)cc1Cl` (stereo not drawn), the TGI was over 100 µM.

`Cn1c2ccccc2c2c(-c3ccccc3)cc3c(c21)C(=O)C=CC3=O`: the TGI was over 9.19 µM.

Molecule `Nc1ncnn2c(C3OC(CO)C(O)C3O)ccc12` (stereo not drawn) gave a TGI of 1.99 µM.

In turn, `COC(=O)[C@@H]1CN(C(C)=O)C(=O)N1` gave a TGI of over 100 µM.

The molecule `COc1ccc(-c2c(C#N)c(N)n(C3OCC(OC(C)=O)C(OC(C)=O)C3OC(C)=O)c(=S)c2C#N)cc1` (stereo not drawn) returned a TGI of over 100 µM.

A further test concerns HS 578T breast. As to the kind of experiment: inhibition of tumour cell growth, NCI panel, 48 h.
`CC(C)=CCC/C(C)=C/CC/C(C)=C/CC/C(C)=C/C=C/C=C(\C)CC/C=C(\C)CC/C=C(\C)CCC=C(C)C` displayed a TGI of over 100 µM.

With `CCOC(=O)P(=O)(O)c1ccc(N(C)Cc2ccccc2)cc1`, the TGI was over 100 µM.

In the case of `C=C(C)C1=CCC[C@]2(C1)N=C(OC)[C@@H](C(C)C)N=C2OC`, the TGI was over 100 µM.

Molecule `Cc1cc2ccccc2n2c1nc1ccccc12` yielded a TGI of over 100 µM.

In the case of `[N-]=[N+]=Nc1ccccc1C(=O)N1C(=O)c2ccccc2C(=O)N(C(=O)c2ccccc2N=[N+]=[N-])c2ccccc21`, the TGI was over 100 µM.

Consider `CCCCCCCCCCCCCCCCCCNC(=O)C(N)Cc1ccc(OCc2ccccc2)cn1` (stereo not drawn), for which the TGI amounted to 51.1 µM.

`Cc1ccc2c(c1)[nH]c(=S)n2/C=C1\C(=O)Oc2ccccc2C1=O`: the TGI was over 100 µM.

Take `CC(C)Cn1cnc2c(NCC(C)O)nc3ccccc3c21` (stereo not drawn): the TGI is over 100 µM.

With `OC1(c2cccs2)c2cccc(Cl)c2C(O)(c2cccs2)c2c(Cl)cccc21` (stereo not drawn), the TGI stood at 33.4 µM.

For the molecule `C=CCOc1cccc(C2(O)c3ccccc3C3=NCCCN32)c1` (stereo not drawn), the TGI is over 78.4 µM.

Consider `O=C1CCCCC/C1=C\c1cccc(Cl)c1`, for which the TGI was 94.3 µM.

As to `CCc1c2c([nH]c(=S)c1C#N)CCC2`, the TGI is over 100 µM.

`C=CCN1C(=O)/C(=C/c2ccc(OC)cc2)N=C1SC/C=C/C` came in with a TGI of over 100 µM.

`Cc1nc2ccccc2n1COC(Cn1ccnc1)c1ccc(Cl)cc1Cl` (stereo not drawn) yielded a TGI of over 100 µM.

In turn, `Cn1c2ccccc2c2c(-c3ccccc3)cc3c(c21)C(=O)C=CC3=O` had a TGI of 9.62 µM.

`Nc1ncnn2c(C3OC(CO)C(O)C3O)ccc12` (stereo not drawn) had a TGI of 0.275 µM.

For the molecule `COC(=O)[C@@H]1CN(C(C)=O)C(=O)N1`, the TGI is over 100 µM.

In the case of `COc1ccc(-c2c(C#N)c(N)n(C3OCC(OC(C)=O)C(OC(C)=O)C3OC(C)=O)c(=S)c2C#N)cc1` (stereo not drawn), the GI50 was 33.5 µM and 76.2 µM; the TGI was over 100 µM.
